Assay results: the NIST ThermoML archive (doi:10.1021/je020178w)

How the values were obtained:
[1] = 308.15 K, 101.3 kPa, Liquid; for viscosity: Capillary tube (Ostwald / Ubbelohde) method
[2] = xn = mol fraction of the nth substance listed; settings: 308.15 K, 101.3 kPa, Liquid; for viscosity: Capillary tube (Ostwald / Ubbelohde) method

CNC(C)=O [N-methylacetamide]
[1]
Settings	mass density [kg/m3]	viscosity [mPa·s]
–	958.9	3.67

OCCOCCOCCO [triethylene glycol] + CNC(C)=O
[2], x2 = 0
Settings	mass density [kg/m3]	viscosity [mPa·s]
–	1112.1	23.84

CNC(C)=O [N-methylacetamide] + OCCO
[2]
Settings	mass density [kg/m3]
x1 = 0.0847	1089.5
x1 = 0.212	1068.3
x1 = 0.3298	1049.4
x1 = 0.4247	1034.9
x1 = 0.5255	1020.5
x1 = 0.6275	1006.3
x1 = 0.7471	990.5
x1 = 0.8412	978.6
x1 = 0.9347	967.3
x1 = 1	958.9

CNC(C)=O [N-methylacetamide] + OCCOCCOCCO
[2]
Settings	mass density [kg/m3]	viscosity [mPa·s]
x1 = 0.1142	1103.7	21.93
x1 = 0.2059	1095.7	20.39
x1 = 0.3069	1085.6	18.59
x1 = 0.4265	1071.8	16.35
x1 = 0.5415	1056.3	14.01
x1 = 0.6392	1041	11.91
x1 = 0.7266	1025.3	9.98
x1 = 0.8278	1004.5	7.74
x1 = 0.9307	979.5	5.3
x1 = 1	958.9	3.67

OCCOCCO [diethylene glycol] + CNC(C)=O
[2], x2 = 0
Settings	mass density [kg/m3]	viscosity [mPa·s]
–	1105.6	17.59

CNC(C)=O [N-methylacetamide] + OCCOCCO
[2]
Settings	mass density [kg/m3]	viscosity [mPa·s]
x1 = 0.1121	1094.4	16.13
x1 = 0.2394	1079.9	14.47
x1 = 0.3419	1067.4	13.11
x1 = 0.4564	1052.2	11.57
x1 = 0.5574	1037.8	10.17
x1 = 0.6538	1023.2	8.8
x1 = 0.7649	1005.3	7.2
x1 = 0.8343	993	6.16
x1 = 0.9252	975.2	4.8
x1 = 1	958.9	3.67

OCCO [1,2-ethanediol]
Settings	viscosity [mPa·s]
[1]	10.59

OCCOCCO [diethylene glycol]
[1]
Settings	mass density [kg/m3]	viscosity [mPa·s]
–	1105.6	17.59

OCCOCCOCCO [triethylene glycol]
[1]
Settings	mass density [kg/m3]	viscosity [mPa·s]
–	1112.1	23.84
